In paper PMC10620162, “Structure—yeast α-glucosidase inhibitory activity relationship of 9-O-berberrubine carboxylates” (Scientific Reports, 2023):
Like-named read-outs stand apart in the source and are kept apart here.

Biological target: T1, yeast α-glucosidase (Saccharomyces cerevisiae, UniProt P53341)
T1 construct: purchased Sigma Aldrich
Test: biochemical
Conditions: for inhibition at 50 µM: read-out: Inhibition at 50 μM (%), 50 μM
Protocol: Berberrubine derivatives will be assayed for yeast α-glucosidase inhibitory activity. The protocol described by Ramadhan et al. will be used[37]. Briefly, yeast α-glucosidase (0.1 U/mL) and substrate (1 mM p-nitrophenyl-α-D-glucopyranoside) were dissolved in 0.1 M phosphate buffer (pH 6.9). A 10 μL test sample was pre-incubated with α-glucosidase (40 μL) at 37 °C for 10 min. A substrate solution (50 μL) was then added to the reaction mixture and incubated at 37 °C for an additional 20 min, and terminated by adding 1 M Na2CO3 solution (100 μL). […] The percentage inhibition of activity was calculated as follows: % Inhibition = [(A0 − A1)/A0] × 100, where: A0 is the absorbance without the sample; A1 is the absorbance with the sample. The IC50 value was deduced from the plot of % inhibition versus the concentration of the test sample.

T1 sequence (P53341 whole entry): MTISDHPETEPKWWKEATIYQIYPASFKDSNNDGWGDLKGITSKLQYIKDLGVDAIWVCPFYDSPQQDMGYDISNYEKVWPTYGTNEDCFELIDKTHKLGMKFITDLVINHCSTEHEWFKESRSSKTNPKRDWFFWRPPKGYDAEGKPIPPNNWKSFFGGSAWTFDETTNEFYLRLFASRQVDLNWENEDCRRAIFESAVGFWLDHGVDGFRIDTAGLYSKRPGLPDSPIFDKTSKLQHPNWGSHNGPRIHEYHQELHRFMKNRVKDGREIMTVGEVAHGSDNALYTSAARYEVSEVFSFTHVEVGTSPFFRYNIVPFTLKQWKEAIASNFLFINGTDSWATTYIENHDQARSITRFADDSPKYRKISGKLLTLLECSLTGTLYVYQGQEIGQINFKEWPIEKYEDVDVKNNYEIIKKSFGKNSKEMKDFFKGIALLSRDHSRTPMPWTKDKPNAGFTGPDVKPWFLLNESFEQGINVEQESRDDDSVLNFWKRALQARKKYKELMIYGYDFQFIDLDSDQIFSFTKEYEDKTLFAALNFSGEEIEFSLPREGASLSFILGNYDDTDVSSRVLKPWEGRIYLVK

Row | Structure (SMILES) | inhibition at 50 µM [%] | IC50 [µM] | Inhibition at 50 μM (%) (50 μM) | IC50 (read-out: IC50) [µM]
1 | COc1ccc2cc3[n+](cc2c1O)CCc1cc2c(cc1-3)OCO2 [BBRB, 9-hydroxy-10-methoxy-5,6-dihydro-[1,3]dioxolo[4,5-g]isoquinolino[3,2-a]isoquinolin-7-ium chloride, reference compound] | < 0 | – | – | –
2 | COc1ccc2cc3[n+](cc2c1OC(=O)c1ccccc1)CCc1cc2c(cc1-3)OCO2.[Cl-] [Compound 1, 9-(benzoyloxy)-10-methoxy-5,6-dihydro-[1,3]dioxolo[4,5-g]isoquinolino[3,2-a]isoquinolin-7-ium chloride] | 58 | 25.3 ± 2.63 | 57.67 | –
3 | COc1ccccc1C(=O)Oc1c(OC)ccc2cc3[n+](cc12)CCc1cc2c(cc1-3)OCO2 [Compound 2, 10-methoxy-9-((2-methoxybenzoyl)oxy)-5,6-dihydro-[1,3]dioxolo[4,5-g]isoquinolino[3,2-a]isoquinolin-7-ium chloride] | 79.1 | 19.5 ± 1.62 | – | –
4 | COc1cccc(C(=O)Oc2c(OC)ccc3cc4[n+](cc23)CCc2cc3c(cc2-4)OCO3)c1 [Compound 3, 10-methoxy-9-((3-methoxybenzoyl)oxy)-5,6-dihydro-[1,3]dioxolo[4,5-g]isoquinolino[3,2-a]isoquinolin-7-ium chloride] | 89.7 | 11.6 ± 1.19 | – | –
5 | COc1ccc(C(=O)Oc2c(OC)ccc3cc4[n+](cc23)CCc2cc3c(cc2-4)OCO3)cc1 [Compound 4, 10-methoxy-9-((4-methoxybenzoyl)oxy)-5,6-dihydro-[1,3]dioxolo[4,5-g]isoquinolino[3,2-a]isoquinolin-7-ium chloride] | 80 | 18.4 ± 1.31 | – | –
6 | COc1ccc2cc3[n+](cc2c1OC(=O)c1cccc(O)c1)CCc1cc2c(cc1-3)OCO2 [Compound 5, 9-((3-hydroxybenzoyl)oxy)-10-methoxy-5,6-dihydro-[1,3]dioxolo[4,5-g]isoquinolino[3,2-a]isoquinolin-7-ium chloride] | 98.1 | – | – | 7.51 ± 0.42
7 | COc1ccc(C(=O)Oc2c(OC)ccc3cc4[n+](cc23)CCc2cc3c(cc2-4)OCO3)cc1OC [Compound 6, 9-((3,4-dimethoxybenzoyl)oxy)-10-methoxy-5,6-dihydro-[1,3]dioxolo[4,5-g]isoquinolino[3,2-a]isoquinolin-7-ium chloride] | 73.9 | 19.1 ± 1.01 | – | –
8 | COc1ccc2cc3[n+](cc2c1OC(=O)c1ccc2c(c1)OCO2)CCc1cc2c(cc1-3)OCO2 [Compound 7, 9-((benzo[d][1,3]dioxole-5-carbonyl)oxy)-10-methoxy-5,6-dihydro-[1,3]dioxolo[4,5-g]isoquinolino[3,2-a]isoquinolin-7-ium chloride] | 99.7 | – | – | 6.44 ± 0.5
9 | COc1cc(C(=O)Oc2c(OC)ccc3cc4[n+](cc23)CCc2cc3c(cc2-4)OCO3)cc(OC)c1OC [Compound 8, 10-methoxy-9-((3,4,5-trimethoxybenzoyl)oxy)-5,6-dihydro-[1,3]dioxolo[4,5-g]isoquinolino[3,2-a]isoquinolin-7-ium chloride] | 72 | 23.9 ± 1.87 | – | –
10 | COc1ccc2cc3[n+](cc2c1OC(=O)c1ccccc1Cl)CCc1cc2c(cc1-3)OCO2 [Compound 10, 9-((2-chlorobenzoyl)oxy)-10-methoxy-5,6-dihydro-[1,3]dioxolo[4,5-g]isoquinolino[3,2-a]isoquinolin-7-ium chloride] | 88.5 | 12.2 ± 0.82 | – | –
11 | COc1ccc2cc3[n+](cc2c1OC(=O)c1cccc(Cl)c1)CCc1cc2c(cc1-3)OCO2 [Compound 11, 9-((3-chlorobenzoyl)oxy)-10-methoxy-5,6-dihydro-[1,3]dioxolo[4,5-g]isoquinolino[3,2-a]isoquinolin-7-ium chloride] | 95.5 | – | – | 9.43 ± 0.8
12 | COc1ccc2cc3[n+](cc2c1OC(=O)c1ccc(Cl)cc1)CCc1cc2c(cc1-3)OCO2 [Compound 12, 9-((4-chlorobenzoyl)oxy)-10-methoxy-5,6-dihydro-[1,3]dioxolo[4,5-g]isoquinolino[3,2-a]isoquinolin-7-ium chloride] | 96.5 | 10.6 ± 0.6 | – | –
13 | COc1ccc2cc3[n+](cc2c1OC(=O)c1ccccc1F)CCc1cc2c(cc1-3)OCO2 [Compound 13, 9-((2-fluorobenzoyl)oxy)-10-methoxy-5,6-dihydro-[1,3]dioxolo[4,5-g]isoquinolino[3,2-a]isoquinolin-7-ium chloride] | 72 | 24.9 ± 1.78 | – | –
14 | COc1ccc2cc3[n+](cc2c1OC(=O)c1cccc(F)c1)CCc1cc2c(cc1-3)OCO2 [Compound 14, 9-((3-fluorobenzoyl)oxy)-10-methoxy-5,6-dihydro-[1,3]dioxolo[4,5-g]isoquinolino[3,2-a]isoquinolin-7-ium chloride] | 63 | 32.8 ± 1.88 | – | –
15 | COc1ccc2cc3[n+](cc2c1OC(=O)c1ccc(F)cc1)CCc1cc2c(cc1-3)OCO2 [Compound 15, 9-((4-fluorobenzoyl)oxy)-10-methoxy-5,6-dihydro-[1,3]dioxolo[4,5-g]isoquinolino[3,2-a]isoquinolin-7-ium chloride] | 73.9 | 21.3 ± 1.97 | – | –
16 | COc1ccc2cc3[n+](cc2c1OC(=O)c1ccccc1Br)CCc1cc2c(cc1-3)OCO2 [Compound 16, 9-((2-bromobenzoyl)oxy)-10-methoxy-5,6-dihydro-[1,3]dioxolo[4,5-g]isoquinolino[3,2-a]isoquinolin-7-ium chloride] | 95.3 | – | – | 6.45 ± 0.52
17 | COc1ccc2cc3[n+](cc2c1OC(=O)c1ccccc1I)CCc1cc2c(cc1-3)OCO2 [Compound 17, 9-((2-iodobenzoyl)oxy)-10-methoxy-5,6-dihydro-[1,3]dioxolo[4,5-g]isoquinolino[3,2-a]isoquinolin-7-ium chloride] | 94.9 | – | – | 9.24 ± 0.5
18 | COc1ccc2cc3[n+](cc2c1OC(=O)c1ccccc1C(F)(F)F)CCc1cc2c(cc1-3)OCO2 [Compound 18, 10-methoxy-9-((2-(trifluoromethyl)benzoyl)oxy)-5,6-dihydro-[1,3]dioxolo[4,5-g]isoquinolino[3,2-a]isoquinolin-7-ium chloride] | 86.1 | 15.7 ± 1.34 | – | –
19 | COc1ccc2cc3[n+](cc2c1OC(=O)c1ccccc1[N+](=O)[O-])CCc1cc2c(cc1-3)OCO2 [Compound 19, 10-methoxy-9-((2-nitrobenzoyl)oxy)-5,6-dihydro-[1,3]dioxolo[4,5-g]isoquinolino[3,2-a]isoquinolin-7-ium chloride] | 81.6 | 10.5 ± 1.03 | – | –
20 | COc1ccc2cc3[n+](cc2c1OC(=O)c1ccc(C#N)cc1)CCc1cc2c(cc1-3)OCO2 [Compound 20, 9-((4-cyanobenzoyl)oxy)-10-methoxy-5,6-dihydro-[1,3]dioxolo[4,5-g]isoquinolino[3,2-a]isoquinolin-7-ium chloride] | 55.6 | 26.5 ± 2.5 | – | –
21 | COc1ccc2cc3[n+](cc2c1OC(=O)c1c(Cl)cccc1Cl)CCc1cc2c(cc1-3)OCO2 [Compound 21, 9-((2,6-dichlorobenzoyl)oxy)-10-methoxy-5,6-dihydro-[1,3]dioxolo[4,5-g]isoquinolino[3,2-a]isoquinolin-7-ium chloride] | 96.6 | 5.86 ± 0.35 | – | –
22 | COc1ccc2cc3[n+](cc2c1OC(=O)c1ccccc1C)CCc1cc2c(cc1-3)OCO2 [Compound 22, 10-methoxy-9-((2-methylbenzoyl)oxy)-5,6-dihydro-[1,3]dioxolo[4,5-g]isoquinolino[3,2-a]isoquinolin-7-ium chloride] | 90.6 | 18.1 ± 0.68 | – | –
23 | COc1ccc2cc3[n+](cc2c1OC(=O)c1ccc(C)cc1)CCc1cc2c(cc1-3)OCO2 [Compound 23, 10-methoxy-9-((4-methylbenzoyl)oxy)-5,6-dihydro-[1,3]dioxolo[4,5-g]isoquinolino[3,2-a]isoquinolin-7-ium chloride] | 78.9 | 17.5 ± 1.11 | – | –
24 | CCc1ccc(C(=O)Oc2c(OC)ccc3cc4[n+](cc23)CCc2cc3c(cc2-4)OCO3)cc1 [Compound 24, 9-((4-ethylbenzoyl)oxy)-10-methoxy-5,6-dihydro-[1,3]dioxolo[4,5-g]isoquinolino[3,2-a]isoquinolin-7-ium chloride] | 81 | 12.5 ± 0.99 | – | –
25 | COc1ccc2cc3[n+](cc2c1OC(=O)c1ccc(C(C)(C)C)cc1)CCc1cc2c(cc1-3)OCO2 [Compound 25, 9-((4-(tert-butyl)benzoyl)oxy)-10-methoxy-5,6-dihydro-[1,3]dioxolo[4,5-g]isoquinolino[3,2-a]isoquinolin-7-ium chloride] | 98.9 | 3.53 ± 0.31 | – | –
26 | COc1ccc2cc3[n+](cc2c1OC(=O)c1cccc2ccccc12)CCc1cc2c(cc1-3)OCO2 [Compound 27, 9-((1-naphthoyl)oxy)-10-methoxy-5,6-dihydro-[1,3]dioxolo[4,5-g]isoquinolino[3,2-a]isoquinolin-7-ium chloride] | 99.8 | – | – | 2.67 ± 0.27
27 | COc1ccc2cc3[n+](cc2c1OC(=O)/C(C)=C/c1ccccc1)CCc1cc2c(cc1-3)OCO2 [Compound 30, (E)-10-methoxy-9-((2-methyl-3-phenylacryloyl)oxy)-5,6-dihydro-[1,3]dioxolo[4,5-g]isoquinolino[3,2-a]isoquinolin-7-ium chloride] | 91.9 | 10.3 ± 0.84 | – | –
28 | COc1ccc2cc3[n+](cc2c1OC(=O)/C=C/c1ccc2c(c1)OCO2)CCc1cc2c(cc1-3)OCO2 [Compound 31, (E)-9-((3-(benzo[d][1,3]dioxol-5-yl)acryloyl)oxy)-10-methoxy-5,6-dihydro-[1,3]dioxolo[4,5-g]isoquinolino[3,2-a]isoquinolin-7-ium chloride] | 98.9 | – | – | 4.64 ± 0.55
